The values below come from patent publication US20260272895A1, “METHODS AND KITS FOR DELIVERY OF COMPOUNDS INTO CELLS” (Yale University, priority 2023, published 2026).

The test system of this assay is brain cell types. Put plainly: In vivo two-photon imaging of mouse cortex after topical cortical administration of fluorophores. The following applies: for Target: cell type taking up the compound in vivo (Table 1); for in vivo endothelial labeling/uptake: two-photon images of mouse cortex, route and concentration not stated. On the procedure: Briefly, animals are anaesthetized via intraperitoneal injections of ketamine/xylazine or via inhaled isoflurane. A region of the skull (3×3 mm) is gently removed with a high-speed drill and the underlying dura is removed. A small glass coverslip is placed over the skull to allow long term optical access for in vivo imaging. Labeling with fluorescent dyes is performed either via intravenous injections or topically application to the cortical surface for 20 min prior to glass cover placement. After recovery, in vivo images are acquired using a two-photon microscope (Bruker Technologies) equipped with a multimodal (fixed wavelength 1040 nm and tunable wavelength) InSight X3 two-photon laser (Spectra Physics) and 20× water immersion objective (Zeiss 1.0N.A.). The two-photon laser is appropriately tuned to excite particular fluorescent dyes and proteins as needed. In selected cases, following in vivo imaging, mice will be sacrificed and perfused for follow up immunohistochemistry and high-resolution confocal imaging (Leica SP8) to further confirm colocalization of dyes and cells expressing particular transporters.
One-month-old wild-type mice were anesthetized using a ketamine/xylazine solution at doses of 100 mg/kg and 10 mg/kg, respectively. The fur around the skull area was shaved, and buprenex (0.1 mg per kg) and carprofen (5 mg per kg) were administered subcutaneously. Mice were kept on a heating pad at 37° C., and anesthesia was periodically monitored. The skin was treated with povidone-iodine solution, followed by cleaning with ethanol, and eye ointment was applied. A small skin section was excised to expose the skull. Thinning of the skull was performed in a circular area, followed by delicately lifting of the remaining skull without harm to the underlying brain. Within the circular region, the dura was gently removed using fine forceps, and a 4 mm cover glass was softly pressed onto the brain surface and affixed to the skull. Fluorescent dyes were applied either through intravenous injections or topically to the cortical surface for 20 minutes before placing the glass cover. A customized head bar was attached either by adhesive (for acute imaging) or permanently implanted (using dental cement, for chronic imaging) onto the skull. Mice were imaged under a two-photon microscope (Prairie Technologies) with a mode-locked MaiTai tunable laser (Spectra Physics). Imaging was performed with a 20× water immersion objective (Zeiss, 1.0NA). Images were captured at depths up to 300 μm from the pial surface using excitation wavelengths ranging from 750 to 950 nm as previously described. Mice undergoing chronic imaging received a recovery period on a heating pad post-surgery, and buprenex (0.1 mg per kg) and carprofen (5 mg per kg) were administered for 3 days.
Batches of 10 compounds were applied through the craniotomy to the cortical surface before placing a cover glass window. No additional washings were performed, and the cover glass was placed, allowing up to 3 hours of imaging of the cortical surface with a two-photon microscope. Following imaging, the data were analyzed to identify potential patterns of cell-specific labeling. […] Positive batches underwent three additional rounds of imaging, with each batch being sequentially split, until a single compound displaying cell-type-specific labeling was identified. As these compounds were not initially purified, the labeling may have resulted from fluorescent byproducts of synthesis. Consequently, large-scale synthesis, purification and characterization (FIGS. 29A-29D) of the identified compounds were conducted. The purified compounds were subsequently retested using in vivo imaging to confirm cell type specificity.
It was reasoned that the best strategy to identify fluorophores with specific affinity to certain cell types and transport mechanisms would be by direct screening in the intact in vivo brain microenvironment. […]

Consider `O=[N+]([O-])c1ccc2c(-c3ccc(S(=O)(=O)O)cc3S(=O)(=O)[O-])c3ccc(Br)cc3[o+]c2c1` [Compound 28, 2-(3-bromo-6-nitroxanthylium-9-yl)-5-sulfobenzenesulfonate], for which the Target entry is given as “Endothelial”.

Regarding `CC(=O)N(O)CCCCCNC(=O)CCC(=O)N(O)CCCCCNC(=O)CCC(=O)N(O)CCCCCNS(=O)(=O)c1ccc(-c2c3ccc(N(C)C)cc3[o+]c3cc(N(C)C)ccc23)c(S(=O)(=O)[O-])c1` [Compound 49, 2-(3,6-bis(dimethylamino)xanthylium-9-yl)-5-(N-(3,14,25-trihydroxy-2,10,13,21,24-pentaoxo-3,9,14,20,25-pentaazatriacontan-30-yl)sulfamoyl)benzenesulfonate], the “in vivo endothelial labeling/uptake” value was “robust endothelial cell body uptake”.

As for `O=S(=O)([O-])c1cc(S(=O)(=O)O)ccc1C1=c2cc3c4c(c2Oc2c1ccc(Br)c2F)CCC[N+]=4CCC3` [Compound 21, 2-(12-bromo-13-fluoro-1,2,3,5,6,7-hexahydrochromeno[2,3-f]pyrido[3,2,1-ij]quinolin-4-ium-9-yl)-5-sulfobenzenesulfonate], the Target entry is “Endothelial”.

Consider `CN(C)c1ccc2c(-c3ccc(S(=O)(=O)NCCNC(=O)OC(C)(C)C)cc3S(=O)(=O)[O-])c3ccc(N(C)C)cc3[o+]c2c1` [Compound 55, 2-(3,6-bis(dimethylamino)xanthylium-9-yl)-5-(N-(2-((tert-butoxycarbonyl)amino)ethyl)sulfamoyl)benzenesulfonate], for which the “in vivo endothelial labeling/uptake” value was “robust endothelial cell body uptake”.

Turning to `O=S(=O)([O-])c1cc(S(=O)(=O)O)ccc1C1=c2cc3c4c(c2Oc2cc(Br)c(Cl)cc21)CCC[N+]=4CCC3` [Compound 15, 2-(12-bromo-11-chloro-1,2,3,5,6,7-hexahydrochromeno[2,3-f]pyrido[3,2,1-ij]quinolin-4-ium-9-yl)-5-sulfobenzenesulfonate], the Target entry is “Endothelial”.

On to `O=S(=O)([O-])c1cc(S(=O)(=O)O)ccc1C1=c2cc3c4c(c2Oc2ccc(Br)cc21)CCC[N+]=4CCC3` [Compound 6, 2-(11-bromo-1,2,3,5,6,7-hexahydrochromeno[2,3-f]pyrido[3,2,1-ij]quinolin-4-ium-9-yl)-5-sulfobenzenesulfonate], for which the Target entry was “Endothelial”.

With `O=S(=O)([O-])c1cc(S(=O)(=O)O)ccc1C1=c2cc3c4c(c2Oc2cc(Br)c(F)cc21)CCC[N+]=4CCC3` [Compound 14, 2-(12-bromo-11-fluoro-1,2,3,5,6,7-hexahydrochromeno[2,3-f]pyrido[3,2,1-ij]quinolin-4-ium-9-yl)-5-sulfobenzenesulfonate], the Target entry was “Endothelial”.

With `O=S(=O)([O-])c1cc(S(=O)(=O)O)ccc1C1=c2cc3c4c(c2Oc2c1ccc(Cl)c2F)CCC[N+]=4CCC3` [Compound 20, 2-(12-chloro-13-fluoro-1,2,3,5,6,7-hexahydrochromeno[2,3-f]pyrido[3,2,1-ij]quinolin-4-ium-9-yl)-5-sulfobenzenesulfonate], the Target entry is on record as “Endothelial”.

For `O=S(=O)([O-])c1cc(S(=O)(=O)O)ccc1C1=c2cc3c4c(c2Oc2cc(F)c(Cl)cc21)CCC[N+]=4CCC3` [Compound 9, 2-(11-chloro-12-fluoro-1,2,3,5,6,7-hexahydrochromeno[2,3-f]pyrido[3,2,1-ij]quinolin-4-ium-9-yl)-5-sulfobenzenesulfonate], the Target entry is given as “Endothelial”.

Take `O=S(=O)([O-])c1cc(S(=O)(=O)O)ccc1C1=c2cc3c4c(c2Oc2c1ccc(F)c2F)CCC[N+]=4CCC3` [Compound 19, 2-(12,13-difluoro-1,2,3,5,6,7-hexahydrochromeno[2,3-f]pyrido[3,2,1-ij]quinolin-4-ium-9-yl)-5-sulfobenzenesulfonate]: the Target result was “Endothelial”.

`O=S(=O)([O-])c1cc(S(=O)(=O)O)ccc1-c1c2ccc(Br)cc2[o+]c2ccc(-n3cncn3)cc12` [Compound 33, 2-(6-bromo-2-(1H-1,2,4-triazol-1-yl)xanthylium-9-yl)-5-sulfobenzenesulfonate]: the Target result is “Endothelial”.

Turning to `CN(C)c1ccc2c(-c3ccc(S(=O)(=O)O)cc3S(=O)(=O)[O-])c3cc(Br)ccc3[o+]c2c1` [Compound 38, 2-(2-bromo-6-(dimethylamino)xanthylium-9-yl)-5-sulfobenzenesulfonate], the Target entry is given as “Astrocyte”.

With `O=[N+]([O-])c1ccc2c(c1)Oc1c3c4c(cc1=C2c1ccc(S(=O)(=O)O)cc1S(=O)(=O)[O-])CCC[N+]=4CCC3` [Compound 35, 2-(12-nitro-1,2,3,5,6,7-hexahydrochromeno[2,3-f]pyrido[3,2,1-ij]quinolin-4-ium-9-yl)-5-sulfobenzenesulfonate], the Target result is “Astrocyte”.

For the compound `CCN(CC)c1ccc2c(-c3ccc(S(=O)(=O)O)cc3S(=O)(=O)[O-])c3cc(Br)ccc3[o+]c2c1` [Compound 39, 2-(2-bromo-6-(diethylamino)xanthylium-9-yl)-5-sulfobenzenesulfonate], the Target result is “Endothelial”.

With `O=S(=O)([O-])c1cc(S(=O)(=O)O)ccc1C1=c2cc3c4c(c2Oc2c(Br)cccc21)CCC[N+]=4CCC3` [Compound 5, 2-(13-bromo-1,2,3,5,6,7-hexahydrochromeno[2,3-f]pyrido[3,2,1-ij]quinolin-4-ium-9-yl)-5-sulfobenzenesulfonate], the Target result is reported as “Endothelial”.

Consider `CCN(CC)c1ccc2c(-c3ccc(S(=O)(=O)NCCOCCOCCOCCOCCOCCOCCOCCOCCOCCOCCOCCOCCOCCOCCOCCOCCOCCOCCOCCOCCOCCOCCOCCOCCOCCOCCOCCOCCOCCOCCOCCOCCOCCOCCOCCOCCOCCOCCOCCOCCOCCOCCOCCOCCOC)cc3S(=O)(=O)[O-])c3ccc(N(CC)CC)cc3[o+]c2c1` [Compound 57], for which the “in vivo endothelial labeling/uptake” value was “highly specific in vivo endothelial labeling”.

As to `CN(C)c1ccc2c(c1)Oc1c3c4c(cc1=C2c1ccc(S(=O)(=O)O)cc1S(=O)(=O)[O-])CCC[N+]=4CCC3` [Compound 36, 2-(12-(dimethylamino)-1,2,3,5,6,7-hexahydrochromeno[2,3-f]pyrido[3,2,1-ij]quinolin-4-ium-9-yl)-5-sulfobenzenesulfonate], the Target entry is given as “Astrocyte”.

In the case of `CN(C)c1ccc2c(-c3ccc(S(=O)(=O)O)cc3S(=O)(=O)[O-])c3ccc(N(C)C)cc3[o+]c2c1` [Compound 43, 2-(3,6-bis(dimethylamino)xanthylium-9-yl)-5-sulfobenzenesulfonate], the Target result is reported as “Endothelial”. Further, the “cellular labeling in cortex” value (topical cortical administration, 50 μM, wild type mice) is on record as “robust endothelial specific uptake”.

`O=S(=O)([O-])c1cc(S(=O)(=O)O)ccc1C1=c2cc3c4c(c2Oc2c(Br)cc(Br)cc21)CCC[N+]=4CCC3` [Compound 7, 2-(11,13-dibromo-1,2,3,5,6,7-hexahydrochromeno[2,3-f]pyrido[3,2,1-ij]quinolin-4-ium-9-yl)-5-sulfobenzenesulfonate]: the Target result was “Endothelial”.

`O=S(=O)([O-])c1cc(S(=O)(=O)O)ccc1-c1c2ccc(Br)cc2[o+]c2ccc(-n3ccnc3)cc12` [Compound 31, 2-(6-bromo-2-(1H-imidazol-1-yl)xanthylium-9-yl)-5-sulfobenzenesulfonate]: the Target result is given as “Endothelial”.

On to `O=S(=O)([O-])c1cc(S(=O)(=O)O)ccc1C1=c2cc3c4c(c2Oc2cc(F)c(F)cc21)CCC[N+]=4CCC3` [Compound 8, 2-(11,12-difluoro-1,2,3,5,6,7-hexahydrochromeno[2,3-f]pyrido[3,2,1-ij]quinolin-4-ium-9-yl)-5-sulfobenzenesulfonate], for which the Target entry is “Endothelial”.

Take `CN(Cc1cnc2nc(NS(=O)(=O)c3ccc(C4=c5cc6c7c(c5Oc5cc(Br)ccc54)CCC[N+]=7CCC6)c(S(=O)(=O)[O-])c3)nc(N)c2n1)c1ccc(C(=O)N[C@@H](CCC(=O)O)C(=O)O)cc1` [52a/52b]: the “endothelial cell labeling/uptake after topical application to the brain” value (topical cortical application) is “very strong”.

On to `O=S(=O)([O-])c1cc(S(=O)(=O)O)ccc1C1=c2cc3c4c(c2Oc2cc(Cl)c(F)cc21)CCC[N+]=4CCC3` [Compound 11, 2-(12-chloro-11-fluoro-1,2,3,5,6,7-hexahydrochromeno[2,3-f]pyrido[3,2,1-ij]quinolin-4-ium-9-yl)-5-sulfobenzenesulfonate], for which the Target result is on record as “Endothelial”.
